Tests used:
[1] = Calcein AM cytotoxicity assay, NIH3T3; type: cell-based, mouse; details: mouse, NIH3T3 fibroblasts
Method in brief: (§1)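 K562, MCF-7 and NIH3T3 cells (10^4/well) in DMEM with 10% FBS were preincubated for 24 hrs, then given six 4-fold dilutions, usually from 166.7 μM, in duplicate for 72 hrs at 37° C. Viability was read by Calcein AM fluorescence after 1 hour, with GI50 from survival relative to control.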

[2] = Calcein AM cytotoxicity assay, K562; type: cell-based, human; details: human, K562 erythroleukemia cells
Method in brief: as §1

[3] = Calcein AM cytotoxicity assay, MCF-7; type: cell-based; details: human, MCF-7 breast cancer cells
Method in brief: as §1

[4] = test system: Normal human dermal fibroblasts (NHDF); assay: In vitro phototoxicity test (UVA, neutral red); type: cell-based; details: UVA 5.0 J/cm^2, 0.9-125 μmol/l or 3.9-500 μmol/l, neutral red after 24 hours
Description: Phototoxic potential of test compound was determined by modified in vitro test validated phototoxicity evaluation (Spielmann H, Balls M, Dupuis J, Pape W J, Pechovitch G, de Silva O, Holzhater H G, Clothier R, Desolle P, Gerberick F, Liebsch M, Lovell W W, Maurer T, Pfannenbecker U, Potthast J M, Csato M, Sladowski D, Steiling W, Brantom P., Toxicol In Vitro. 1998 Jun. 1; 12(3):305-27). Normal human dermal fibroblasts (NHDF) were used as an in vitro model. Cells were isolated from tissue specimens obtained from healthy patients undergoing plastic surgery at the Department of Plastic and Aesthetic Surgery (University Hospital Olomouc). The use of skin tissue was in accordance with the Ethics Committee of the University Hospital and Faculty of Medicine and Dentistry, Palacký University, Olomouc and all patients signed written informed consent. Fibroblasts were used between the 2nd and 4th passage. […]
Test compound was 6-(3-methoxybenzylamino)-9-β-D-arabinofuranosylpurine. […] Intensity of UVA radiation was evaluated before each irradiation by UVA-meter. […] After 24 hours (37° C., 5% CO2) cell damage was evaluated by neutral red (NR) incorporation into viable cells. […] After 5 minutes of intensive shaking absorbance was measured at 540 nm. […] Phototoxic effect was evaluated as % of viability of control cells that was calculated from experimental data (absorbance) according to the following equation: […]

For `COc1cccc(CNc2ncnc3c2ncn3[C@@H]2O[C@H](CO)[C@@H](O)[C@@H]2O)c1` [6-(3-methoxybenzylamino)-9-β-D-arabinofuranosylpurine], the GI50 at 72 h [1] was > 100 µM, the GI50 at 72 h [2] was > 100 µM and the GI50 at 72 h [3] was > 100 µM. The “phototoxic effect (viability after UVA)” value [4] was “non-phototoxic”.

Reference: patent US10100077B2, “6-aryl-9-glycosylpurines and use thereof” (UNIVERZITA PALACKEHO V OLOMOUCI, priority 2014, dated 2018)
